According to ChEMBL document CHEMBL3425446, “Isolation, semi-synthesis and bio-evaluation of spatane derivatives from the brown algae Stoechospermum marginatum” (Bioorg Med Chem Lett, 2015):
Converted amounts (≈) assume the structure as drawn. The source made the active and inactive calls. The calls are words filed in the database; no cut-off is given here.

What was measured:
[1] = system: Escherichia coli; test: Antibacterial activity against Escherichia coli assessed as compound concentration required to complete growth inhibition at 8 hrs by tube dilution method; assay type: functional
[2] = system: Micrococcus luteus; test: Antibacterial activity against Micrococcus luteus assessed as growth inhibition at 0.5 mg/ml after 24 hrs by well diffusion method; assay type: functional; details: read-out: DIZ
[3] = system: Klebsiella pneumoniae; test: Antibacterial activity against Klebsiella pneumoniae assessed as compound concentration required to complete growth inhibition at 8 hrs by tube dilution method; assay type: functional
[4] = system: B16-F10; test: Cytotoxicity against mouse B16F10 cells assessed as growth inhibition at 200 ug/ml after 24 hrs by MTT assay; assay type: functional, cell-based
[5] = system: THP-1; test: Cytotoxicity against human THP1 cells assessed as decrease in cell number after 24 hrs by MTT assay; assay type: functional, cell-based; details: THP-1, 24 h
[6] = Cytotoxicity against human U937 cells assessed as decrease in cell number after 24 hrs by MTT assay; assay type: functional, cell-based; details: U-937, 24 h
[7] = system: Escherichia coli; test: Antibacterial activity against Escherichia coli assessed as growth inhibition at 0.5 mg/ml after 24 hrs by well diffusion method; assay type: functional; details: read-out: DIZ
[8] = system: COLO 205; test: Cytotoxicity against human COLO205 cells assessed as decrease in cell number after 24 hrs by MTT assay; assay type: functional, cell-based; details: COLO 205, 24 h
[9] = system: Bacillus subtilis; test: Antibacterial activity against Bacillus subtilis assessed as compound concentration required to complete growth inhibition at 8 hrs by tube dilution method; assay type: functional
[10] = system: Bacillus subtilis; test: Antibacterial activity against Bacillus subtilis assessed as growth inhibition at 0.5 mg/ml after 24 hrs by well diffusion method; assay type: functional; details: read-out: DIZ
[11] = system: HL-60; test: Cytotoxicity against human HL60 cells assessed as growth inhibition at 200 ug/ml after 24 hrs by MTT assay; assay type: functional, cell-based
[12] = system: Micrococcus luteus; test: Antibacterial activity against Micrococcus luteus assessed as compound concentration required to complete growth inhibition at 8 hrs by tube dilution method; assay type: functional
[13] = system: Klebsiella pneumoniae; test: Antibacterial activity against Klebsiella pneumoniae assessed as growth inhibition at 0.5 mg/ml after 24 hrs by well diffusion method; assay type: functional; details: read-out: DIZ
[14] = system: U-937; test: Cytotoxicity against human U937 cells assessed as growth inhibition at 200 ug/ml after 24 hrs by MTT assay; assay type: functional, cell-based
[15] = Cytotoxicity against mouse B16F10 cells assessed as decrease in cell number after 24 hrs by MTT assay; assay type: functional, cell-based; details: B16-F10, 24 h
[16] = system: COLO 205; test: Cytotoxicity against human COLO205 cells assessed as growth inhibition at 200 ug/ml after 24 hrs by MTT assay; assay type: functional, cell-based
[17] = system: THP-1; test: Cytotoxicity against human THP1 cells assessed as growth inhibition at 200 ug/ml after 24 hrs by MTT assay; assay type: functional, cell-based

Row | SMILES | MIC [1] [µg/mL] | zone of inhibition at 500 µg/mL [2] [mm] | MIC [3] [µg/mL] | growth inhibition (GI) [4] | IC50 [5] [µg/mL] | IC50 [6] [µg/mL] | zone of inhibition at 500 µg/mL [7] [mm] | IC50 [8] [µg/mL] | MIC [9] [µg/mL] | zone of inhibition at 500 µg/mL [10] [mm] | growth inhibition (GI) [11] | MIC [12] [µg/mL] | zone of inhibition at 500 µg/mL [13] [mm] | growth inhibition (GI) [14] | IC50 [15] [µg/mL] | growth inhibition (GI) [16] | growth inhibition (GI) [17]
1 | C=C(CC(=O)C=C(C)C)[C@@H]1CC(=O)[C@@]2(C)[C@@H]1[C@@H]1[C@H](C)CC[C@@H]12 | 200 (≈ 666 µM) | 11.3 | 200 (≈ 666 µM) | inactive | 113 (≈ 377 µM) | 47.5 (≈ 158 µM) | 10 | 167 (≈ 557 µM) | 400 (≈ 1330 µM) | 0 | inactive | 200 (≈ 666 µM) | 12.7 |  |  |  | 
2 | C=C(C(O)/C=C/C(C)(O)CO)[C@@H]1C[C@@H](O)[C@@]2(C)[C@@H]1[C@@H]1[C@H](C)CC[C@@H]12 (mixture of isomers) | 200 | 12.3 | 200 |  | 55.6 |  | 11.7 | 17.4 | 200 | 12.7 | inactive | 200 | 12.3 | inactive | 196 |  | 
3 | C=C(C(/C=C/C(C)(O)COC(C)=O)OC(C)=O)[C@@H]1C[C@@H](O)[C@@]2(C)[C@@H]1[C@@H]1[C@H](C)CC[C@@H]12 (mixture of isomers) | 100 | 12.3 | 200 |  |  |  | 14.3 |  | 100 | 11.7 | inactive | 100 | 12.7 | inactive | 82 | inactive | inactive
